Measured values taken from the NIST ThermoML archive (doi:10.1016/j.jct.2018.12.012).
± gives the expanded uncertainty stated by the source.

Assay: xn = mol fraction of the nth substance listed
Conditions: 100 kPa, Liquid; for speed of sound: Frequency=3 MHz, Single path-length method; for mass density: Vibrating tube method

CC(C)NC(C)C [diisopropylamine] + CCCC(C)O
Conditions	mass density, 293.15 K [kg/m3]	mass density, 298.15 K [kg/m3]	mass density, 303.15 K [kg/m3]	mass density, 308.15 K [kg/m3]	speed of sound, 293.15 K [m/s]	speed of sound, 298.15 K [m/s]	speed of sound, 303.15 K [m/s]	speed of sound, 308.15 K [m/s]
x1 = 0.0998	803.093 ± 1.5	798.887 ± 1.5	794.621 ± 1.5	790.277 ± 1.5	1248.1 ± 6.5	1229 ± 6.5	1209.9 ± 6.5	1190.3 ± 6.5
x1 = 0.2001	795.724 ± 1.5	791.357 ± 1.5	786.936 ± 1.5	782.457 ± 1.5	1241.1 ± 6.5	1220.9 ± 6.5	1200.8 ± 6.5	1181.5 ± 6.5
x1 = 0.3	787.848 ± 1.5	783.455 ± 1.5	778.721 ± 1.5	774.03 ± 1.5	1230 ± 6.4	1209.5 ± 6.4	1189.3 ± 6.4	1168.8 ± 6.4
x1 = 0.4001	778.463 ± 1.5	773.871 ± 1.5	769.242 ± 1.5	764.565 ± 1.5	1216.8 ± 6.4	1196.3 ± 6.4	1175.3 ± 6.4	1154.3 ± 6.4
x1 = 0.5006	768.901 ± 1.4	764.237 ± 1.4	759.54 ± 1.4	754.802 ± 1.4	1201.8 ± 6.4	1180.2 ± 6.4	1158.9 ± 6.4	1137.8 ± 6.4
x1 = 0.6001	758.906 ± 1.4	754.192 ± 1.4	749.437 ± 1.4	744.665 ± 1.4	1185.2 ± 6.4	1164 ± 6.4	1142.1 ± 6.4	1120.9 ± 6.4
x1 = 0.678	751.419 ± 1.4	746.673 ± 1.4	741.893 ± 1.4	737.079 ± 1.4	1172.8 ± 6.3	1151 ± 6.3	1129.1 ± 6.3	1107.4 ± 6.3
x1 = 0.7975	738.446 ± 1.4	733.65 ± 1.4	728.827 ± 1.4	723.973 ± 1.4	1152.6 ± 6.3	1130.2 ± 6.3	1108.1 ± 6.3	1086.2 ± 6.3
x1 = 0.8993	728.166 ± 1.4	723.262 ± 1.4	718.39 ± 1.4	713.692 ± 1.4	1132.8 ± 6.3	1110.2 ± 6.3	1087.8 ± 6.3	1063.8 ± 6.3
x1 = 1	717.305 ± 1.4	712.441 ± 1.4	707.55 ± 1.4	702.661 ± 1.4	1116.4 ± 6.3	1093.8 ± 6.3	1071.1 ± 6.3	1043.5 ± 6.3

CC(C)NC(C)C [diisopropylamine] + CCC(C)O
Conditions	mass density, 293.15 K [kg/m3]	mass density, 298.15 K [kg/m3]	mass density, 303.15 K [kg/m3]	mass density, 308.15 K [kg/m3]	speed of sound, 293.15 K [m/s]	speed of sound, 298.15 K [m/s]	speed of sound, 303.15 K [m/s]	speed of sound, 308.15 K [m/s]
x1 = 0.1005	799.801 ± 1.4	795.472 ± 1.4	791.07 ± 1.4	786.592 ± 1.4	1230.8 ± 6.2	1211.7 ± 6.2	1192.3 ± 6.2	1173.4 ± 6.2
x1 = 0.1994	792.039 ± 1.4	787.516 ± 1.4	782.932 ± 1.4	778.279 ± 1.4	1226.2 ± 6.2	1205.7 ± 6.2	1185.3 ± 6.2	1165 ± 6.2
x1 = 0.3003	783.508 ± 1.4	778.829 ± 1.4	774.115 ± 1.4	769.331 ± 1.4	1217.3 ± 6.2	1196.2 ± 6.2	1175.6 ± 6.2	1154 ± 6.2
x1 = 0.3999	774.58 ± 1.4	769.813 ± 1.4	765.003 ± 1.4	760.146 ± 1.4	1205.6 ± 6.2	1183.8 ± 6.2	1162.3 ± 6.2	1141.1 ± 6.2
x1 = 0.5	764.776 ± 1.4	759.954 ± 1.4	755.099 ± 1.4	750.197 ± 1.4	1191 ± 6.2	1169.2 ± 6.2	1147.4 ± 6.2	1125.6 ± 6.2
x1 = 0.5961	755.456 ± 1.4	750.604 ± 1.4	745.72 ± 1.4	740.801 ± 1.4	1176.6 ± 6.2	1154.3 ± 6.2	1132.2 ± 6.2	1110.4 ± 6.2
x1 = 0.6964	745.553 ± 1.4	740.705 ± 1.4	735.88 ± 1.4	731.103 ± 1.4	1160.7 ± 6.3	1139 ± 6.3	1116.3 ± 6.3	1094.2 ± 6.3
x1 = 0.7997	736.007 ± 1.4	731.125 ± 1.4	726.228 ± 1.4	721.299 ± 1.4	1145.2 ± 6.3	1122.7 ± 6.3	1100.3 ± 6.3	1078.3 ± 6.3
x1 = 0.8967	726.62 ± 1.4	721.759 ± 1.4	716.873 ± 1.4	711.96 ± 1.4	1129.7 ± 6.3	1107 ± 6.3	1084.5 ± 6.3	1062.5 ± 6.3
x1 = 1	717.305 ± 1.4	712.441 ± 1.4	707.55 ± 1.4	702.661 ± 1.4	1116.4 ± 6.3	1093.8 ± 6.3	1071.1 ± 6.3	1043.5 ± 6.3
